Legend:
[1] = test system: simian (chimpanzee) P2RY14; assay: FLIPR whole cell Ca2+ agonist assay, HEK cells expressing simian (chimpanzee) P2RY14 and Gqi5; type: cell-based
From the text: (§1) Stable HEK clonal cell lines expressing P2RY14 and the chimeric G protein Gqi5 were constructed. The chimeric Gqi5 forces the coupling of P2RY14 through the Gq (calcium) pathway and allows for monitoring of calcium signaling using a calcium binding fluorescent dye and a FLIPR (fluorometric imaging plate reader, MDS Sciex). Vector pCEP4 comprising the chimeric Gqi5 was obtained from Molecular Devices, Sunnyvale, Calif. (Cat. No. RD-PGQI5).
The simian (chimpanzee) P2RY14 nucleic acid fragment was synthesized based upon the Ensembl Gene ID ENSPTRG00000030093 by Bio S & T, Montreal, Quebec, Canada, to be flanked with KpnI and NotI restriction enzyme sites. […] The DNA fragment was digested with KpnI and NotI and then cloned into a pcDEF3 vector previously digested with KpnI and NotI to place the DNA fragment in the proper orientation downstream of the human EF-1a promoter. The nucleic acid encoding the simian P2RY14 was under the control of the human EF-1a promoter.
(§2) Cells were grown in DMEM medium containing 25 mM HEPES, pH 7.4 and 10% FBS, 50 units/ml penicillin/50 μg/ml streptomycin, 2 mM glutamine and 1 mM sodium pyruvate at 37° C. in humidified air containing 5% CO2. Two days post-transfection, cells were grown under selection in the DMEM medium as indicated above and supplemented with 200 μg/ml Hygromycin B and 250 μg/ml geneticin.
(§3) Cells were incubated overnight at 37° C. and 5% CO2 to form a monolayer. On the following day, 30 μl of fluorescent no-wash dye was added to the cell monolayer and the plate was incubated for 60 minutes at 37° C., 5% CO2.
(§4) For agonist assays, 6.12 μl of 10× agonist solution was added to the cell/dye incubation and Ca^2+ signaling was monitored by FLIPR. For antagonist assays, 250 nl of compound in 100% DMSO was added to cell/dye mixture; following a 20 minute incubation at room temperature, 6.12 μl of 10× agonist solution at EC80 in HBSS containing 20 mM Hepes was added to cells and Ca^2+ signaling was monitored by FLIPR. Quantitation of the % stimulation or inhibition of Ca^2+ signaling by agonist or antagonist, respectively, was calculated using the Max-Min fluorescent signal detected.

[2] = test system: simian (chimpanzee) P2RY14; assay: CellKey System live cell functional assay, simian P2RY14; type: cell-based; conditions: HEK cells expressing simian P2RY14 and Gqi5
Description: (§5) The Cellkey System™ (MDS Sciex), a novel, live cell, label-free, real-time technology, was used to examine P2RY14 activation following agonist stimulation. The CellKey System™ is based on cellular dielectric spectroscopy (CDS) and monitors changes in impedance of the applied electrical current through the cell monolayer upon receptor activation.
(§6) On the following day, growth medium was removed from the cell monolayer and replaced with 135 μl of HBSS pH 7.4 containing 20 mM Hepes for a 30 minutes pre-incubation period at room temperature. Baseline measurements were made for 5 minutes at 28° C. prior to ligand addition. For agonist assays, 15 μl of 10× agonist diluted in HBSS pH 7.4 containing 20 mM HEPES was added to the cell monolayer simultaneously using the 96 multichannel head from the CellKey™ System. Cellular response was monitored for 10 minutes to assess cellular response after ligand addition.

[3] = molecular target: T1, P2RY14 (Homo sapiens, UniProt Q15391); assay: FLIPR whole cell Ca2+ agonist assay, HEK cells expressing human P2RY14 and Gqi5; type: cell-based; design: expressed in transfected cells; conditions: HEK cells expressing human P2RY14 and Gqi5, FLIPR
T1 sequence (Q15391 1-338): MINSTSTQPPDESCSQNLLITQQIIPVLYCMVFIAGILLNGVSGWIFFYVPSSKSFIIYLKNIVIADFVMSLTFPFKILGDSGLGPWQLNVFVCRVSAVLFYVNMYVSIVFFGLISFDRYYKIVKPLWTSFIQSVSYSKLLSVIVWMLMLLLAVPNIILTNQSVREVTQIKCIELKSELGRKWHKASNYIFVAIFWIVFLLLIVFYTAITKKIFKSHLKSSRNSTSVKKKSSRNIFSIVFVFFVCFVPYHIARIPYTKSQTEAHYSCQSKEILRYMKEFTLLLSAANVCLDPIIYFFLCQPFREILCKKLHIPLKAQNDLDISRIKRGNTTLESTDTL
From the text: as §1
The human P2RY14 was PCR amplified from the I.M.A.G.E. clone obtained from Invitrogen, Carlsbad, Calif. […] The codon encoding glutamate at position 54 in the wild-type human P2RY14 was changed to code for lysine. […] The PCR reaction was done in two parts. In the first part, the reaction was 5 cycles at 94° C. for 30 seconds, 65° C. for 30 seconds, and 72° C. for 90 seconds. In the second part, the reaction was 25 cycles at 94° C. for 30 seconds, 70° C. for 30 seconds, 72° C. for 90 seconds. The last cycle was followed by 7 minutes at 72° C. The PCR amplified human P2RY14 was digested with KpnI and NotI and cloned into a pcDNA3.1 (+) vector previously digested with KpnI and NotI to place the DNA fragment in the proper orientation downstream of the CMV promoter. The nucleic acid encoding the human P2RY14 was under the control of the CMV promoter.
as §2, §3, §4

[4] = molecular target: T1, P2RY14; design: host or cells: yeast and HEK-293 cells (Chambers et al., J. Biol. Chem. 275: 10767-10771 (2000)); conditions: yeast and mammalian cells, Chambers et al. 2000; cited from earlier work
[5] = molecular target: T1, P2RY14; assay: CellKey System live cell functional assay, human P2RY14; type: cell-based; design: expressed in transfected cells; conditions: HEK cells expressing human P2RY14 and Gqi5
Description: as §5, §6

For `O=c1ccn([C@@H]2O[C@H](COP(=O)(O)O)[C@@H](O)[C@H]2O)c(=O)[nH]1` [UMP], the “activation of P2RY14 (Ca2+ signaling)” value [1] was “activated”, the “P2RY14 signaling (impedance, CellKey)” value [2] was “mediated signaling” and the “activation of P2RY14 (Ca2+ signaling)” value [3] was “activated”. For the same molecule, the “activation of P2RY14” value [4] was “unable to activate” and the “P2RY14 signaling (impedance, CellKey)” value [5] was “mediated signaling”.

Source: US20090148850A1, “Methods for identifying modulators of P2RY14” (priority 2007, published 2009)
